{"source": "paper PMC11429243", "about": "“The Fluorinated NAD Precursors Enhance FK866 Cytotoxicity by Activating SARM1 in Glioblastoma Cells” (Biology, 2024)", "key": {"NRK1": {"target": "T1, NRK1 (Homo sapiens, UniProt Q9NWW6)", "T1 construct": "gene NMRK1; recombinant human NRK1 (CDS of NM_017881.3) in pET22b, E. coli Rosetta (DE3)", "T1 sequence (Q9NWW6 1-199)": "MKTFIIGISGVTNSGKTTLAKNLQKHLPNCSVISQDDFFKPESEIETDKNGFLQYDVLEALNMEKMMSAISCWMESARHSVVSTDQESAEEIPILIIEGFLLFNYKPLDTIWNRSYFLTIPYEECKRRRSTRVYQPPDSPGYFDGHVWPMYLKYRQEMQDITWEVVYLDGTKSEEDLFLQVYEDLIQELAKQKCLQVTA", "assay": "HPLC of conversion of NR to NMN by purified enzyme", "format": "biochemical"}, "NRK2": {"target": "T2, NRK2 (Homo sapiens, UniProt Q9NPI5)", "T2 construct": "gene NMRK2; recombinant human NRK2 (CDS of NM_170678.2) in pET22b, E. coli Rosetta (DE3)", "T2 sequence (Q9NPI5 whole entry)": "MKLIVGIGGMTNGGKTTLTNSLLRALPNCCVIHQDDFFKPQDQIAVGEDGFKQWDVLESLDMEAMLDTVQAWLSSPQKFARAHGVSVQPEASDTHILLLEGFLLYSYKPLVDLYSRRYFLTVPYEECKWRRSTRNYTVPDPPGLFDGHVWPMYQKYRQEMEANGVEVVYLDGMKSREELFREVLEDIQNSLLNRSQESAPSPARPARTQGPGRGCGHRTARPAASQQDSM", "assay": "HPLC of conversion of NR to NMN by purified enzyme", "format": "biochemical"}}, "data": [{"molecule": "NC(=O)c1ccc[n+]([C@@H]2O[C@H](CO)[C@@H](O)[C@H]2O)c1", "note": "[NR, nicotinamide riboside]", "values": [{"measurement": "HPLC of conversion of NR to NMN by purified enzyme", "setting": "NRK1", "result": 12.03, "unit": "pmol NR/µg/h"}, {"measurement": "HPLC of conversion of NR to NMN by purified enzyme", "setting": "NRK2", "result": 17.28, "unit": "pmol NR/µg/h"}]}]}
